Data taken from US8703106B2, “Chlorine dioxide treatment for biological tissue” (priority 2009, dated 2014).
Where “and” joins values, the source holds several entries; their conditions need not be identical. Equal entries are not always repeated.

How the values were obtained:
mixed PA/MRSA biofilm = assay: Biofilm kill in protein-rich (FBS) environment (Example 3); format: cell-based, Pseudomonas aeruginosa and Staphylococcus aureus; conditions: for Log Reduction in Organism Count: MRSA + PA
Description: (§1) Chlorine dioxide efficacy against biofilm in protein-rich environment A series of experiments were conducted to determine the effect of FBS on the kill of PA. MRSA and mixture PA/MRSA biofilms. Biofilms were grown as described in Example 1, Disks were immersed in 25 ml of FBS solution at double the target FBS concentration, and to that was added 25 ml of chlorine dioxide solution at double the target chlorine dioxide concentration. After the desired contact time, disks were removed from the treatment solutions, neutralized, and plated as described above.
(§2) Dosage is given both as the nominal dose based upon the initial chlorine dioxide concentration, and the actual dosage as estimated from the initial chlorine dioxide concentration and the decay relationships described above.
(§3) Columns 3-6 are measured data; columns 7-11 are calculated data. For K2 having a positive sign (such as Samples 20-21), it was assumed that there was insufficient FBS present to cause a material loss of chlorine dioxide. Therefore, for such samples, it was assumed that chlorine dioxide was unchanged over the time of the experiment FIG. 4 is a graph of the results.

MRSA biofilm = assay: as above; format: cell-based, Staphylococcus aureus; conditions: for Log Reduction in Organism Count: MRSA
Description: as §1, §2, §3

[1] = Chlorine dioxide loss in fetal blood serum (FBS) solution; format: physicochemical
Description: A series of experiments were conducted to estimate and quantify the effect of blood serum on chlorine dioxide concentration. Solutions of chlorine dioxide and fetal blood serum (FBS) were prepared at different concentrations of chlorine dioxide and FBS, and the chlorine dioxide concentration was tracked using a Spectral Physics UV/Visible spectrophotometer with a direct insertion probe (1 mm path length).
The initial chlorine dioxide concentration was measured using a Hach Model 2400 UV/Vis spectrophotometer. A UV/Vis scan was then measured over the wavelength range of about […] using the direct insertion probe, and this was used to calculate the initial absorbance of the solution. FBS was then added, and UV/Vis scans were run periodically thereafter. The area of the chlorine dioxide absorbance peak was calculated for each scan, and the relative chlorine dioxide concentration at each time was calculated by dividing the area at each time point by the peak area of the initial scan (prior to FBS addition). Relative chlorine dioxide concentration was plotted versus time for each set of chlorine dioxide and FBS concentrations. […] The exponent K2 in the equation is an estimate of the decay rate of chlorine dioxide in the FBS solution. The weight ratio of FBS to chlorine dioxide was calculated by dividing, the mass of FBS added to the solution by the mass of chlorine dioxide in the solution.
as §2, §3

[2] = Tooth whitening with multiple contiguous applications, Vita Classic Shade Guide (Example 7); set-up: species or system human; conditions: for ΔSVU, Average: average of five teeth; for ΔSVU: nominal 200 ppm (actual 155 ppm) NaCMC gel, pH 5.0, individual teeth A-E, baseline C4
Description: This study was designed to assess the efficacy on tooth whitening of two different regimens of multiple, contiguous applications of a 200 ppm chlorine dioxide gel. Five human extracted teeth (molars) were used in this study. Each tooth was sectioned twice: first at the tooth's cemento-enamel junction to remove the root portion of the tooth; then sectioned mesio-distally to separate the tooth into two, separate buccal and lingual halves. […] The sectioned teeth were then stained in concentrated black tea (cooled to room temperature after brewing) until each tooth accumulated enough stain to be visually graded as “C4” (hut no lighter than “A4”) per the Vita Classic Shade Vision Guide.
After staining, the cut sides of each tooth were sealed with an acrylic polymer (i.e. acrylic-based nail polish). The tooth was then “split” or functionally “divided” into a left and right sides (the tooth was not physically split). To create “dividing line,” a narrow channel was first created down the center of the tooth (running from the occlusal to the gingival or cervical portion of the tooth) using a narrow tungsten carbide or diamond tip dental bur, thereby creating an approximately 0.5 to 1.5-mm deep by 1 to 1.5-mm wide channel on either the buccal or lingual enamel surface of the tooth segment. The channel was etched carefully with a 34-40% phosphoric acid dental etching gel preparation (being careful to confine the gel only to the enamel within the prepared channel). The etching gel was then removed by water rinsing, the Stir face was dried, and a thin, narrow band of enamel-dentin adhesive was then applied carefully only to the enamel within the narrow channel. The material was allowed to dry in ambient air for 1 minute then carefully dried with a gentle stream of compressed air for an additional 10 seconds. The enamel-dentin adhesive was subsequently cured by exposure to a visible light dental curing unit using actinic blue light at an approximate peak wavelength of 470 nm for multiple, 20 second curing increments. In order to fill in the channel and gradually build a “wall” or harrier to separate the left and right half of the lingual surface of the tooth, a thin, narrow layer or band of composite resin dental restorative material was added in several steps and cured with the dental visible blue-light curing unit.
The wall that was built up on each tooth prevents whitening agent applied on the left side of the tooth to migrate into the whitening agent that was applied on the right side of the tooth, and visa versa. In this way, it is possible to compare two different treatment regimens on the same tooth, thereby minimizing the biological diversity among different teeth that may affect whitening efficacy.
Two treatment regimens were tested, both using a nominal 200 ppm chlorine dioxide gel comprising sodium carboxymethylcellulose (NaCMC). The actual concentration of chlorine dioxide was measured and found to be 155 ppm; pH of the composition was 5.0. The general treatment protocol is as follows. […] The 60 ml syringe was used to store the gel during the assay, and for dispensing gel into a 10 ml plastic syringe. The gel in the 10 ml syringe was then dispensed directly onto the tooth section enamel surfaces as follows. At time zero, about 1 to 1.5 ml gel was dispensed onto the enamel surface of each tooth segment attached to the glass microscope slide. The thickness of the resulting gel layer was about 1.5 to 3.0 mm in depth. After dispensing the gel onto the tooth segments, the glass slide was placed in a plastic zippered bag, containing small strips of wet paper towel within the bag to maintain 100% humidity in the bag. The paper towel strips were positioned to eliminate any contact of the plastic bag with the tooth and gel surfaces.
Upon conclusion of a contact epidose, the glass slide was removed from the plastic bag, and the gel was carefully removed with an extra soft bristle toothbrush and a gentle stream of running tap water. […]

[3] = 30 minutes total exposure, Left: 2 × 15 minutes
[4] = 30 minutes total exposure, Right: 4 × 7.5 minutes
[5] = 60 minutes total exposure, Left: 4 × 15 minutes
[6] = 60 minutes total exposure, Right: 8 × 7.5 minutes

[O][Cl+][O-] [ClO2, chlorine dioxide]
Log Reduction in Organism Count (mixed PA/MRSA biofilm; Sample 17, FBS 131 mg/mg ClO2, 15.0 min, initial 191 ppm, nominal 2865, corrected 2236 ppm-min): 8.2 log
Log Reduction in Organism Count (mixed PA/MRSA biofilm; Sample 18, FBS 131 mg/mg ClO2, 40.0 min, initial 191 ppm, nominal 7640, corrected 5559 ppm-min): 8.2 log
Log Reduction in Organism Count (mixed PA/MRSA biofilm; Sample 19, FBS 104 mg/mg ClO2, 15.0 min, initial 240 ppm, nominal and corrected 3600 ppm-min): 8.2 log
Log Reduction in Organism Count (mixed PA/MRSA biofilm; Sample 20, FBS 104 mg/mg ClO2, 30.0 min, initial 240 ppm, nominal and corrected 7200 ppm-min): 8.2 log
Log Reduction in Organism Count (mixed PA/MRSA biofilm; Sample 21, FBS 104 mg/mg ClO2, 60.0 min, initial 240 ppm, nominal and corrected 14400 ppm-min): 8.2 log
corrected dose rate resulting in complete kill (mixed PA/MRSA biofilm; mixed PA/MRSA biofilm, with FBS): ≥ 2000 ppm-rain
corrected dose rate resulting in complete kill (MRSA biofilm; MRSA biofilm, with FBS): ≥ 2000 ppm-rain
Log Reduction in Organism Count (MRSA biofilm; Sample 22, FBS 131 mg/mg ClO2, 15.0 min, initial 191 ppm, nominal 2865, corrected 2236 ppm-min): 4.7 log
Log Reduction in Organism Count (MRSA biofilm; Sample 23, FBS 131 mg/mg ClO2, 40.0 min, initial 191 ppm, nominal 7640, corrected 5559 ppm-min): 4.7 log
Log Reduction in Organism Count (MRSA biofilm; Sample 24, FBS 104 mg/mg ClO2, 15.0 min, initial 240 ppm, nominal and corrected 3600 ppm-min): 4.7 log
Log Reduction in Organism Count (MRSA biofilm; Sample 25, FBS 104 mg/mg ClO2, 30.0 min, initial 240 ppm, nominal and corrected 7200 ppm-min): 4.7 log
Log Reduction in Organism Count (MRSA biofilm; Sample 26, FBS 104 mg/mg ClO2, 60.0 min, initial 240 ppm, nominal and corrected 14400 ppm-min): 4.7 log
Final ClO2 Concentration ([1]; 104 mg FBS/mg ClO2, initial 240 ppm, 15.0 min, assumed unchanged): 240 ppm
Final ClO2 Concentration ([1]; 104 mg FBS/mg ClO2, initial 240 ppm, 30.0 min, assumed unchanged): 240 ppm
Final ClO2 Concentration ([1]; 104 mg FBS/mg ClO2, initial 240 ppm, 60.0 min, assumed unchanged): 240 ppm
Decay rate, K2 ([1]; 104 mg FBS/mg ClO2, initial 240 ppm, calculated, positive K2 taken as no loss): 0.0344
Final ClO2 Concentration ([1]; 131 mg FBS/mg ClO2, initial 191 ppm, 15.0 min, calculated): 107 ppm
Final ClO2 Concentration ([1]; 131 mg FBS/mg ClO2, initial 191 ppm, 40.0 min, calculated): 87 ppm
Decay rate, K2 ([1]; 131 mg FBS/mg ClO2, initial 191 ppm, calculated from K2=-0.00927(FBS/ClO2)+1): −0.2134
ΔSVU, Average [2, 3]: 11.4 SVU
ΔSVU [2, 3]: 12 SVU (3×) and 10 SVU and 11 SVU
ΔSVU, Average [2, 4]: 12.6 SVU
ΔSVU [2, 4]: 15 SVU and 12 SVU (4×)
ΔSVU, Average [2, 5]: 11.8 SVU
ΔSVU [2, 5]: 12 SVU (4×) and 11 SVU
ΔSVU, Average [2, 6]: 13.6 SVU
ΔSVU [2, 6]: 15 SVU (2×) and 14 SVU and 12 SVU (2×)
improvement of tooth whitening, four applications compared to two applications ([2]; nominal dosage 6000 ppm-min (30 minutes × 200 ppm)): about 10%
improvement of tooth whitening, eight applications over four applications ([2]; nominal dosage 12,000 ppm-min): about 15%
